From patent publication US4889634A, “Dialysate solution containing hydroxypropyl-beta-cyclodextrin and method of using same” (priority 1988, dated 1989)

Columns and labels:
laboratory animals = details: cited from earlier work
normal rats = test: relative nephrotoxicity of HPBCD and BCD, intraperitoneal; format: in vivo, rat; details: for Mortality (died/total): BCD 0.75% w/v, HPBCD 1.5 and 3% w/v, 15 ml/100 g i.p.; for Rats died of kidney failure: in words
Description: (§1) A first study was conducted to determine the relative nephrotoxicity of HPBCD and BCD. A control group using phosphate buffer solution was also included in the study.
(§2) Three groups of normal rats were utilized in this study. […] Group I rats were given the vehicle solution of phosphate buffer saline (PBS). Group II rats were subdivided into three sub-groups. The first sub-group received a solution having a concentration of 1.5% HPBCD, the second sub-group received a solution having a concentration of 3% HPBCD while the third sub-group received a solution having a concentration of 6% HPBCD. Group III rats were given a solution having a concentration of 0.75% BCD.
(§3) Animals from each group were sacrificed at 24 and 72 hours after injection of the peritoneal solution. The animals were sacrificed under general anesthesia and exsanguinated from the abdominal aorta. Plasma was separated and blood urea nitrogen and creatinine was measured and used as an index of renal toxicity of the solutions.

[1] = as above; format: in vivo, rat; details: rat, in vivo, ip, BCD 0.75%
Description: as §1, §2, §3

[2] = 1 day, BCD 0.75%, HPBCD 1.5 and 3%
[3] = 3 day, BCD 0.75%, HPBCD 1.5 and 3%

## OC[C@H]1O[C@@H]2O[C@H]3[C@H](O)[C@@H](O)[C@@H](O[C@H]4[C@H](O)[C@@H](O)[C@@H](O[C@H]5[C@H](O)[C@@H](O)[C@@H](O[C@H]6[C@H](O)[C@@H](O)[C@@H](O[C@H]7[C@H](O)[C@@H](O)[C@@H](O[C@H]8[C@H](O)[C@@H](O)[C@@H](O[C@H]1[C@H](O)[C@H]2O)O[C@@H]8CO)O[C@@H]7CO)O[C@@H]6CO)O[C@@H]5CO)O[C@@H]4CO)O[C@@H]3CO [BCD, beta-cyclodextrin]
Laboratory animals; laboratory animals, reports in literature
  Renal toxicity (kidney enlargement, death): enlargement of the kidneys and death due to kidney failure
Laboratory animals; rat, in vivo
  Toxicity at high concentrations: toxic
Laboratory animals; rats, peritoneal dialysate, Perrin et al.
  Removal of intravenously administered toxins: accelerate the removal of intravenously administered toxins in rats
Normal rats; 1 day
  Mortality (died/total): 1/6
Normal rats; [2]
  Kidney size: enlarged
  Kidney weight: increased
Normal rats; 1 day, BCD 0.75%, HPBCD 1.5 and 3%, Table III
  BUN: 79.4 mg/dL
Normal rats; 3 day
  Mortality (died/total): 8/9
Normal rats; [3]
  Kidney size: enlarged
  Kidney weight: increased
Normal rats; BCD 0.75%, 1d, n = 6
  BUN: 79.4 mg/dL
  Final body weight Wt (f): 218 g
  Initial body weight Wt (i): 223 g
  Left kidney weight (Lt kd): 1272 mg
  Left kidney/body weight (Lt kd/wt): 5.83 mg/g
  Right kidney weight (Rt kd): 1307 mg
  Right kidney/body weight (Rt kd/wt): 5.98 mg/g
Normal rats; BCD 1d Group
  Rats died of kidney failure: One rat
Normal rats; BCD 3d Group (nine rats)
  Rats died of kidney failure: all but two of the nine rats
[1]; 1d, n = 6
  mortality at 24 h: 16.7%
[1]; 3d, n = 9
  mortality at 72 h: 77.8%
